Measurements from publication PMC9504587, “Cytotoxic Drimane-Type Sesquiterpenes from Co-Culture of the Marine-Derived Fungi Aspergillus carneus KMM 4638 and Beauveria felina (=Isaria felina) KMM 4639” (Marine Drugs, 2022).
Values after ≈ are worked out from the molar mass of the structure shown. Like-named read-outs stand apart in the source and are kept apart here.

How the values were obtained:
[1] = system: normal rat cardiomyocyte H9c2 cell line; test: MTT cytotoxicity assay, H9c2 cells; format: cell-based; conditions: 24 h incubation, mean ± SEM
Experimental: (§1) PC-3, MCF-7, C6, and H9c2 cells were cultured in DMEM medium (Biolot, St. Petersburg, Russia) containing 10% fetal bovine serum (Biolot, St. Petersburg, Russia) and 1% penicillin/streptomycin (Biolot, St. Petersburg, Russia) at 37 °C in a humidified atmosphere with 5% (v/v) CO2. The Raji cells were cultured in RPMI-1640 medium (Biolot, St. Petersburg, Russia) containing 10% fetal bovine serum (Biolot, St. Petersburg, Russia) and 1% penicillin/streptomycin (Biolot, St. Petersburg, Russia) under the same conditions.
(§2) Initially, cells were incubated in culture flasks until subconfluent (~80%). For testing, the cells were seeded at concentrations of 5 × 10^3 cells/well (PC-3, MCF-7, Raji, and C6 cells) or 3 × 10^3 cells/well (H9c2 cells), and experiments were started after 24 h.
(§3) The in vitro cytotoxicity of individual substances was determined by the MTT method (3-(4,5-dimethylthiazol-2-yl)-2,5-diphenyltetrazolium bromide), according to the manufacturer’s instructions (Sigma-Aldrich, St. Louis, MO, USA).
(§4) Investigated compounds were dissolved in DMSO at a concentration of 10 mM.
(§5) The cells were treated with the investigated compounds for 24 h or 48 h, and MTT reagent was added to each well of the plate. The vehicle with DMSO at a concentration of 1% was used as a control. The absorbance of formed formazan was measured at λ = 570 nm using a Multiskan FC microplate photometer (Thermo Scientific, Waltham, MA, USA) and expressed in optical units (o.u.). The results are presented as % of viable cells relative to vehicle, and 50% inhibition concentration of cell viability (IC50) was calculated.

[2] = system: rat glioblastoma C6; test: MTT cytotoxicity assay, C6 cells; format: cell-based; conditions: 24 h incubation, mean ± SEM
Experimental: as §1, §2, §3, §4, §5

[3] = system: human prostate cancer PC-3; test: MTT cytotoxicity assay, PC-3 cells; format: cell-based; conditions: 24 h incubation, mean ± SEM
Experimental: as §1, §2, §3, §4, §5

[4] = system: human lymphoma Raji; test: MTT cytotoxicity assay, Raji cells; format: cell-based; conditions: 24 h incubation, mean ± SEM
Experimental: as §1, §2, §3, §4, §5

[5] = system: human breast cancer MCF-7; test: MTT cytotoxicity assay, MCF-7 cells; format: cell-based
Experimental: as §1, §2, §3, §4, §5

[6] = system: MCF-7 cells; test: Apoptosis profile by flow cytometry (Muse annexin V and dead cell kit); format: cell-based, human; conditions: 10 µM, 48 h
Experimental: After incubation, culture media were collected; then, cells were washed twice with cold PBS and incubated with trypsin-EDTA solution for 1 min. The cell suspension was washed twice by centrifugated at 250× g for 4 min with cold PBS and used for apoptosis detection by a Muse® annexin V and dead cell kit in accordance with manufacturer’s instructions (Luminex, Austin, TX, USA). Fluorescence was measured with a Muse® cell analyzer (Luminex, Austin, TX, USA), and data were processed by Muse 1.5 analysis software (Luminex, Austin, TX, USA). The proportion of apoptotic cells was expressed as a percentage.

[7] = system: MCF-7 cells; test: Total caspase activity by flow cytometry (Muse multicaspase kit); format: cell-based, human; conditions: 10 µM, 48 h; control 4.7%
Experimental: The influence of the compounds on the percentage of live MCF-7 cells (caspase−/7-AAD−), live MCF-7 cells with caspase activity (caspase+/7-AAD−), dead MCF-7 cells with caspase activity […] MCF-7 cells (caspase−/7-AAD+) was measured by a Muse® multicaspase kit (Luminex, Austin, TX, USA). The kit utilizes a VAD-peptide derivatized with a fluorescent group called fluorescent-labeled inhibitor of caspases (FLICA). The peptide binds to activated caspases, resulting in a fluorescent signal proportional to the number of active caspases in the cell. Fluorescent dye 7-AAD was used as a dead cell marker in this assay.
After incubation, culture media were collected, and cells were washed twice with cold PBS and incubated in trypsin-EDTA solution for 1 min. The cell suspension was washed twice by centrifugation at 250× g for 4 min with cold PBS and then used for caspase activity detection by a Muse® multicaspase kit (caspases 1, 3, 4, 5, 6, 7, 8, and 9) in accordance with manufacturer’s instructions (Luminex, Austin, TX, USA). Fluorescence was measured with a Muse® cell analyzer (Luminex, Austin, TX, USA), and data were processed by Muse 1.5 analysis software (Luminex, Austin, TX, USA).

[8] = system: MCF-7 cells; test: Cell cycle analysis by flow cytometry (propidium iodide); format: cell-based, human; conditions: 10 µM, 48 h
Experimental: After incubation, cells were trypsinized, harvested, washed with PBS, and fixed with ice-cold 70% ethanol in a dropwise manner prior to storage at −20 °C overnight. The cells were then washed with PBS, incubated with 200 μg/mL RNAse (PanReac, AppliChem, Darmstadt, Germany) and 20 μg/mL of propidium iodide (Sigma-Aldrich, St. Louis, MO, USA) for 30 min at 37 °C, and the DNA content was analyzed with a Muse® cell analyzer (Luminex, Austin, TX, USA). The data were processed by Muse 1.5 analysis software (Luminex, Austin, TX, USA). The proportion of cells in each phase of the cell cycle was expressed as a percentage.

[9] = system: H9c2, C6, PC-3, Raji and MCF-7 cells; test: MTT cytotoxicity, summary statements over several cell lines; format: cell-based; conditions: 24 h, range over both compounds and three cell lines
Experimental: as §3, §4, §5

[10] = system: human leukemia HL-60 cells; set-up: method as in PMID 19769341; conditions: read-out: IC50, HL-60 cell viability; cited from earlier work
[11] = system: human lung cancer A549 cells; set-up: method as in PMID 19769341; conditions: cited from earlier work
[12] = system: lymphoma L5178Y; set-up: method as in PMID 19778087; conditions: cited from earlier work
[13] = system: PC 12; set-up: method as in PMID 19778087; conditions: cited from earlier work
[14] = system: HeLa cells; set-up: method as in PMID 19778087; conditions: cited from earlier work
[15] = molecular target: PTP1B; set-up: method as in earlier work; conditions: cell-free assay; cited from earlier work
[16] = molecular target: SHP2; set-up: method as in earlier work; conditions: cell-free assay; cited from earlier work
[17] = system: murine leukemia P388 cells; set-up: method as in PMID 21628915; conditions: read-out: IC50, P388 cell viability; cited from earlier work
[18] = system: Ceratobasidium cornigerum; set-up: method as in PMID 32605151; conditions: cited from earlier work
[19] = system: Edwardsiella tarda; set-up: method as in PMID 32605151; conditions: cited from earlier work
[20] = system: human histiocytic lymphoma U937 cell line; set-up: method as in PMID 27936301; conditions: cited from earlier work
[21] = Homo sapiens, MCF7, 24 h, 24 h incubation, mean ± SEM, read-out: IC50, MCF-7

With `CC1(C)CCC[C@@]2(C)[C@H]1[C@H](OC(=O)/C=C/C=C/C=O)C=C1COC(=O)[C@@]12O` [Compound 9, ustusolate E] the IC50 ([1]; Rattus norvegicus, H9c2, 24 h) was 66.9 ± 3 µM, the IC50 ([2]; Rattus norvegicus, C6, 24 h) was 54.3 ± 3.3 µM and the IC50 ([3]; Homo sapiens, PC-3, 24 h) was 50.1 ± 1.8 µM. The IC50 ([4]; Homo sapiens, Raji, 24 h) was 88.1 ± 1.3 µM, the “decrease in MCF-7 cell viability” value ([5]; 10 µM, 48 h) was ~50% and the IC50 ([5]; 48 h incubation, concentrations up to 10 µM, read-out: IC50, MCF-7 cell viability, prolonged incubation) was 10.1 ± 0.5 µM. For the same compound, the IC50 [5, 21] was 57.8 ± 0.5 µM, the IC50 ([5]; Homo sapiens, MCF7, 48 h, 48 h incubation, concentrations up to 10 µM, read-out: IC50, MCF-7 cell viability, prolonged incubation) was 10 µM and the “amount of apoptotic cells (early and late)” value ([6]; control 1.7%) was 6.8%. For the same compound, the “amount of living cells” value ([6]; control 98.6%) was 94.1%, the “percentage of cells exhibiting caspase activity (living and 7-AAD-labeled)” value [7] was 12.4% and the subG0 cells ([8]; control 5.4%) was 24.7%. For the same compound, the “decrease in the percentage of cells in the S phase” value ([8]; relative to control) was 41.2%, the “increase of the percentage of cells in the G2/M phase” value ([8]; relative to control) was 67.3% and the “reduction of the percentage of cells in the G0/G1 phase” value ([8]; relative to control) was 33.3%. The “increase of the subG0 population of cells” value ([8]; versus control) was 4.6 times, the IC50 [9] was 54.3 to 88.1 µM and the IC50 [10] was 8 µM. The “toxicity against A549 cells” value [11] was “nontoxic”, the IC50 [12] was 1.6 µM and the IC50 [13] was 19.3 µM. The IC50 [14] was 15.8 µM, the “IC50, PTP1B enzyme activity” value [15] was 50 µg/mL (≈ 134 µM) and the “IC50, SHP2 enzyme activity” value [16] was 40 µg/mL (≈ 107 µM).

With `CC(O)C(=O)/C=C/C=C/C(=O)O[C@@H]1C=C2COC(=O)[C@]2(O)[C@@]2(C)CCCC(C)(C)[C@H]12` (stereo partly shown) [Compound 10, (6-strobilactone A) ester of (E,E)-6-carbonyl-7-hydroxy-2,4-octadienoic acid] the IC50 ([1]; Rattus norvegicus, H9c2, 24 h) was 61.9 ± 0.5 µM, the IC50 ([2]; Rattus norvegicus, C6, 24 h) was > 100 µM and the IC50 ([3]; Homo sapiens, PC-3, 24 h) was 57.8 ± 1.1 µM. The IC50 ([4]; Homo sapiens, Raji, 24 h) was 95.3 ± 0.8 µM, the IC50 [5, 21] was 55.1 ± 1.4 µM and the IC50 [17] was 8.7 µM.

For `CC(O)C(O)/C=C/C=C/C(=O)O[C@@H]1C=C2COC(=O)[C@]2(O)[C@@]2(C)CCCC(C)(C)[C@H]12` (stereo partly shown) [Compound 11, (6-strobilactone A) esters of (E,E)-6,7-dihydroxy-2,4-octadienoic acid], the IC50 ([1]; Rattus norvegicus, H9c2, 24 h) was > 100 µM, the IC50 ([2]; Rattus norvegicus, C6, 24 h) was > 100 µM and the IC50 ([3]; Homo sapiens, PC-3, 24 h) was > 100 µM. For the same compound, the IC50 ([4]; Homo sapiens, Raji, 24 h) was 96.9 ± 1.6 µM and the IC50 [5, 21] was 83.5 ± 1.7 µM.

For `CC(O)C(O)/C=C/C=C/C(=O)O[C@@H]1C=C2COC(=O)[C@]2(O)[C@@]2(C)CCCC(C)(C)[C@H]12` (stereo partly shown) [Compound 12, (6-strobilactone A) esters of (E,E)-6,7-dihydroxy-2,4-octadienoic acid], the IC50 [1] was > 100 µM, the IC50 [2] was > 100 µM and the IC50 [3] was > 100 µM. For the same compound, the IC50 [4] was 97.5 ± 0.9 µM and the IC50 ([5]; 24 h incubation, mean ± SEM, read-out: IC50, MCF-7) was 81.7 ± 0.9 µM.

For `C=C(C)[C@H]1[C@H](OC(C)=O)C[C@H](C)[C@@]12CC=C(C)[C@@H](OC(=O)CCCCCCCC=CCC=CCCCCC)C2` [chermebilaene A], the “MIC, Ceratobasidium cornigerum” value [18] is listed as 0.5 µg/mL (≈ 0.925 µM) and the “MIC, Edwardsiella tarda” value [19] is listed as 0.25 µg/mL (≈ 0.462 µM).

For aluminumneohydroxyaspergillin, the IC50 [20] is given as 4.2 µM.
